{
  "source": "ChEMBL document CHEMBL5230097",
  "about": "“Structure-based design of covalent inhibitors targeting metallo-β-lactamases” (Eur J Med Chem, 2020)",
  "key": {"[1]": {"experiment": "Inhibition of Metallo-beta-lactamase NDM-1 in Escherichia coli BL21 (DE3) assessed as substrate hydrolysis using cefazolin as substrate preincubated for 20 hrs followed by substrate by spectrometric analysis"}, "[2]": {"experiment": "Inhibition of metallo-beta-lactamase IMP-1 (unknown origin) expressed in Escherichia coli BL21 (DE3) assessed as substrate hydrolysis using imipenem as substrate by spectrometric analysis", "parameters": "species or system Bacteria"}, "[3]": {"experiment": "Inhibition of Metallo-beta-lactamase NDM-1 (unknown origin) expressed in Escherichia coli BL21 (DE3) assessed as substrate hydrolysis using imipenem as substrate by spectrometric analysis", "parameters": "species or system Bacteria"}, "[4]": {"experiment": "Inhibition of metallo-beta-lactamase ImiS (unknown origin) expressed in Escherichia coli BL21 (DE3) assessed as substrate hydrolysis using imipenem as substrate by spectrometric analysis", "parameters": "species or system Bacteria"}, "[5]": {"experiment": "Inhibition of Bacillus cereus II metallo-beta-lactamase using nitrocefin as substrate incubated for 5 mins by spectrophotometric analysis"}, "[6]": {"experiment": "Inhibition of wild type metallo-beta-lactamase IMP-1 (unknown origin) assessed as inhibition constant using nitrocefin as substrate preincubated with compound followed by substrate addition and measured for 60 sec by spectroscopic analysis", "parameters": "species or system Bacteria"}, "[7]": {"experiment": "Inhibition of Metallo-beta-lactamase NDM-1 in Escherichia coli BL21 assessed as inhibition constant using nitrocefin as substrate preincubated for 20 mins followed by substrate and measured after 30 mins by spectrophotometric analysis"}, "[8]": {"experiment": "Inhibition of Escherichia coli metallo-beta-lactamase NDM-1 assessed as substrate hydrolysis using cefazolin as substrate preincubated for 12 hrs followed by substrate by UV-Vis spectrophotometric analysis"}},
  "data": [
    {"smiles": "O=c1c2ccccc2sn1-c1ccccc1", "values": [
      {"measurement": "IC50", "setting": "[1]", "value": 160, "unit": "nM"}
    ]},
    {"smiles": "S=C(SSC(=S)N1CCCC1)N1CCCC1", "note": "[BIS(PYRROLIDINYLTHIOCARBONYL)DISULFIDE]", "values": [
      {"measurement": "IC50", "setting": "[2]", "value": 950, "unit": "nM"},
      {"measurement": "IC50", "setting": "[3]", "value": 120, "unit": "nM"},
      {"measurement": "IC50", "setting": "[4]", "value": 3700, "unit": "nM"}
    ]},
    {"smiles": "S=C(SSC(=S)N1CCCCC1)N1CCCCC1", "note": "[BIS(PIPERIDINYLTHIOCARBONYL)DISULFIDE]", "values": [
      {"measurement": "IC50", "setting": "[2]", "value": 880, "unit": "nM"},
      {"measurement": "IC50", "setting": "[3]", "value": 140, "unit": "nM"},
      {"measurement": "IC50", "setting": "[4]", "value": 490, "unit": "nM"}
    ]},
    {"smiles": "C[C@@H](NC(=O)Cc1ccccc1)C(=O)SCC(=O)O", "values": [
      {"measurement": "IC50", "setting": "[5]", "value": 479000, "unit": "nM"}
    ]},
    {"smiles": "O=C(CCSC(=O)CCS)Oc1c(F)c(F)c(F)c(F)c1F", "values": [
      {"measurement": "Ki", "setting": "[6]", "value": 420, "unit": "nM"}
    ]},
    {"smiles": "C[C@@H](NC(=O)c1ccccc1)C(=O)SCC(=O)O", "values": [
      {"measurement": "IC50", "setting": "[5]", "value": 645000, "unit": "nM"}
    ]},
    {"smiles": "O=C(CCS)Oc1c(F)c(F)c(F)c(F)c1F", "values": [
      {"measurement": "Ki", "setting": "[6]", "value": 3450, "unit": "nM"}
    ]},
    {"smiles": "S=C(SSC(=S)N(Cc1ccccc1)Cc1ccccc1)N(Cc1ccccc1)Cc1ccccc1", "note": "[BIS(DIBENZYLAMINETHIOCARBONYL)DISULFIDE]", "values": [
      {"measurement": "IC50", "setting": "[2]", "value": 1700, "unit": "nM"},
      {"measurement": "IC50", "setting": "[3]", "value": 320, "unit": "nM"},
      {"measurement": "IC50", "setting": "[4]", "value": 2600, "unit": "nM"}
    ]},
    {"smiles": "CCN(CC)C(=S)SSC(=S)N(CC)CC", "note": "[DISULFIRAM]", "values": [
      {"measurement": "IC50", "setting": "[2]", "value": 2900, "unit": "nM"},
      {"measurement": "IC50", "setting": "[3]", "value": 130, "unit": "nM"},
      {"measurement": "IC50", "setting": "[4]", "value": 3600, "unit": "nM"}
    ]},
    {"smiles": "CCCCN(CCCC)C(=S)SSC(=S)N(CCCC)CCCC", "values": [
      {"measurement": "IC50", "setting": "[2]", "value": 530, "unit": "nM"},
      {"measurement": "IC50", "setting": "[3]", "value": 260, "unit": "nM"},
      {"measurement": "IC50", "setting": "[4]", "value": 1800, "unit": "nM"}
    ]},
    {"smiles": "O=c1c2ccccc2[se]n1-c1ccccc1", "note": "[EBSELEN]", "values": [
      {"measurement": "Ki", "setting": "[7]", "value": 380, "unit": "nM"}
    ]},
    {"smiles": "O=C(O)C(=O)CBr", "note": "[BROMOPYRUVATE]", "values": [
      {"measurement": "IC50", "setting": "[8]", "value": 2570, "unit": "nM"}
    ]}
  ]
}
